Results reported in US8629276B2, “Inhibitors of human immunodeficiency virus replication” (priority 2012, dated 2014).

Each compound was assayed on recombinant NL-Rluc virus (assay: Inhibition of HIV replication (NL-RLuc virus, luciferase readout in MT-2 cells)). Conditions: Human immunodeficiency virus 1, MT2, 120 h.
Type: cell-based
With `Cc1ccc(-c2c3c(nc(C)c2[C@H](OC(C)(C)C)C(=O)O)CCN(Cc2ccc(Cl)cc2)C3)cc1` [Example 41, (S)-2-(tert-Butoxy)-2-(6-(4-chlorobenzyl)-2-methyl-4-(p-tolyl)-5,6,7,8-tetrahydro-1,6-naphthyridin-3-yl)acetic acid] the EC50 was 150 nM. Compound `Cc1nc2c(c(-c3cc(F)c4c(c3C)CCCO4)c1[C@H](OC(C)(C)C)C(=O)O)CN(CCCc1cccc(F)c1)CC2` (atropisomer, axis not shown) [Example 49, (S)-2-(tert-Butoxy)-2-((R)-4-(8-fluoro-5-methylchroman-6-yl)-6-(3-(3-fluorophenyl)propyl)-2-methyl-5,6,7,8-tetrahydro-1,6-naphthyridin-3-yl)acetic acid] has an EC50 of 4 nM. `CC(C)c1nc2c(c(-c3ccc(F)cc3)c1C(OC(C)(C)C)C(=O)O)CN(C(=O)c1ccc(-c3ccccc3)cc1)CC2(C)C` (stereo not drawn) [Example 13, 2-(6-(Biphenylcarbonyl)-4-(4-fluorophenyl)-2-isopropyl-8,8-dimethyl-5,6,7,8-tetrahydro-1,6-naphthyridin-3-yl)-2-tert-butoxyacetic acid] showed an EC50 of 2010 nM. With `Cc1nc2c(c(-c3cc(F)c4c(c3C)CCCO4)c1[C@H](OC(C)(C)C)C(=O)O)CN(CCCc1ccccc1)CC2` (atropisomer, axis not shown) [Example 42, (2S)-2-(tert-Butoxy)-2-((R)-4-(8-fluoro-5-methylchroman-6-yl)-2-methyl-6-(3-phenylpropyl)-5,6,7,8-tetrahydro-1,6-naphthyridin-3-yl)acetic acid] the EC50 was 7 nM. Work on `CC(C)c1nc2c(c(-c3ccc(F)cc3)c1C(OC(C)(C)C)C(=O)O)CN(c1cccc(-c3ccccc3)c1)CC2(C)C` (stereo not drawn) [Example 17, 2-(6-([1,1′-Biphenyl]-3-yl)-4-(4-fluorophenyl)-2-isopropyl-8,8-dimethyl-5,6,7,8-tetrahydro-1,6-naphthyridin-3-yl)-2-(tert-butoxy)acetic acid] yielded an EC50 of 4600 nM. Compound `CC(C)c1nc2c(c(-c3ccc(F)cc3)c1C(OC(C)(C)C)C(=O)O)CN(c1ccc(-c3ccccc3)cc1)CC2(C)C` (stereo not drawn) [Example 18, 2-(6-([1,1′-Biphenyl]-4-yl)-4-(4-fluorophenyl)-2-isopropyl-8,8-dimethyl-5,6,7,8-tetrahydro-1,6-naphthyridin-3-yl)-2-(tert-butoxy)acetic acid] has an EC50 of 2020 nM. In the case of `Cc1ccc(-c2c3c(nc(C)c2[C@H](OC(C)(C)C)C(=O)O)CCN(CCCc2ccc(Cl)cc2)C3)cc1` [Example 34, (S)-2-(tert-Butoxy)-2-(6-(3-(4-chlorophenyl)propyl)-2-methyl-4-(p-tolyl)-5,6,7,8-tetrahydro-1,6-naphthyridin-3-yl)acetic acid], the EC50 is reported as 12 nM. Work on `CC(C)c1nc2c(c(-c3ccc(F)cc3)c1C(OC(C)(C)C)C(=O)O)CN(C(=O)CCc1ccccc1)CC2(C)C` (stereo not drawn) [Example 12, 2-tert-Butoxy-2-(4-(4-fluorophenyl)-2-isopropyl-8,8-dimethyl-6-(3-phenylpropanoyl)-5,6,7,8-tetrahydro-1,6-naphthyridin-3-yl)acetic acid] yielded an EC50 of 7130 nM. Work on `Cc1ccc(-c2c3c(nc(C)c2C(OC(C)(C)C)C(=O)O)CCN(C(=O)NCc2ccccc2)C3)cc1` (stereo not drawn) [Example 27, 2-(6-(Benzylcarbamoyl)-2-methyl-4-(p-tolyl)-5,6,7,8-tetrahydro-1,6-naphthyridin-3-yl)-2-(tert-butoxy)acetic acid] yielded an EC50 of 499 nM. `Cc1ccc(-c2c3c(nc(C)c2C(OC(C)(C)C)C(=O)O)CCN(Cc2ccccc2)C3)cc1` (stereo not drawn) [Example 21, 2-(6-Benzyl-2-methyl-4-(p-tolyl)-5,6,7,8-tetrahydro-1,6-naphthyridin-3-yl)-2-(tert-butoxy)acetic acid] showed an EC50 of 295 nM. In the case of `Cc1ccc(-c2c3c(nc(C)c2C(OC(C)(C)C)C(=O)O)CCNC3)cc1` (stereo not drawn) [Example 20, 2-(tert-Butoxy)-2-(2-methyl-4-(p-tolyl)-5,6,7,8-tetrahydro-1,6-naphthyridin-3-yl)acetic acid], the EC50 is reported as 13500 nM. Work on `CC(=O)N1CCc2nc(C)c(C(OC(C)(C)C)C(=O)O)c(-c3ccc(C)cc3)c2C1` (stereo not drawn) [Example 25, 2-(6-Acetyl-2-methyl-4-(p-tolyl)-5,6,7,8-tetrahydro-1,6-naphthyridin-3-yl)-2-(tert-butoxy)acetic acid] yielded an EC50 of 1920 nM. For `Cc1nc2c(c(-c3cc(F)c4c(c3C)CCCO4)c1[C@H](OC(C)(C)C)C(=O)O)CN(CCCc1ccc(F)cc1)CC2` (atropisomer, axis not shown) [Example 45, (S)-2-(tert-Butoxy)-2-((R)-4-(8-fluoro-5-methylchroman-6-yl)-6-(3-(4-fluorophenyl)propyl)-2-methyl-5,6,7,8-tetrahydro-1,6-naphthyridin-3-yl)acetic acid], the EC50 was 4 nM. For `CC(C)c1nc2c(c(-c3ccc(F)cc3)c1C(OC(C)(C)C)C(=O)O)CN(c1ccccc1)CC2(C)C` (stereo not drawn) [Example 15, 2-tert-Butoxy-2-(4-(4-fluorophenyl)-2-isopropyl-8,8-dimethyl-6-phenyl-5,6,7,8-tetrahydro-1,6-naphthyridin-3-yl)acetic acid], the EC50 was 2090 nM. Compound `CC(C)c1nc2c(c(-c3ccc(F)cc3)c1C(OC(C)(C)C)C(=O)O)CN(C(=O)Cc1ccc(OCc3ccccc3)cc1)CC2(C)C` (stereo not drawn) [Example 5, 2-(6-(2-(4-(Benzyloxy)phenyl)acetyl)-4-(4-fluorophenyl)-2-isopropyl-8,8-dimethyl-5,6,7,8-tetrahydro-1,6-naphthyridin-3-yl)-2-tert-butoxyacetic acid] has an EC50 of 5130 nM. `Cc1nc2c(c(-c3cc(F)c4c(c3C)CCCO4)c1[C@H](OC(C)(C)C)C(=O)O)CN(CCCc1ccccc1)CC2(C)C` [Example 40, (2S)-2-(tert-Butoxy)-2-(4-(8-fluoro-5-methylchroman-6-yl)-2,8,8-trimethyl-6-(3-phenylpropyl)-5,6,7,8-tetrahydro-1,6-naphthyridin-3-yl)acetic acid] was tested, and the EC50 was 2 nM. For `Cc1ccc(-c2c3c(nc(C)c2C(OC(C)(C)C)C(=O)O)CCN(C(=O)CCc2ccccc2)C3)cc1` (stereo not drawn) [Example 28, 2-(tert-Butoxy)-2-(2-methyl-6-(3-phenylpropanoyl)-4-(p-tolyl)-5,6,7,8-tetrahydro-1,6-naphthyridin-3-yl)acetic acid], the EC50 was 335 nM. For `Cc1ccc(-c2c3c(nc(C)c2C(OC(C)(C)C)C(=O)O)CCN(C(=O)OCc2ccccc2)C3)cc1` (stereo not drawn) [Example 19, 2-(6-((Benzyloxy)carbonyl)-2-methyl-4-(p-tolyl)-5,6,7,8-tetrahydro-1,6-naphthyridin-3-yl)-2-(tert-butoxy)acetic acid], the EC50 was 226 nM. `Cc1nc2c(c(-c3cc(F)c4c(c3C)CCCO4)c1[C@H](OC(C)(C)C)C(=O)O)CN(C(=O)OCc1ccccc1)CC2(C)C` [Example 35, (2S)-2-(6-((Benzyloxy)carbonyl)-4-(8-fluoro-5-methylchroman-6-yl)-2,8,8-trimethyl-5,6,7,8-tetrahydro-1,6-naphthyridin-3-yl)-2-(tert-butoxy)acetic acid] showed an EC50 of 3 nM. Compound `Cc1ccc(-c2c3c(nc(C)c2C(OC(C)(C)C)C(=O)O)CCN(CCc2ccccc2)C3)cc1` (stereo not drawn) [Example 24, 2-(tert-Butoxy)-2-(2-methyl-6-phenethyl-4-(p-tolyl)-5,6,7,8-tetrahydro-1,6-naphthyridin-3-yl)acetic acid] has an EC50 of 240 nM. With `COc1ccc(CCCN2CCc3nc(C)c([C@H](OC(C)(C)C)C(=O)O)c(-c4ccc(C)cc4)c3C2)cc1` [Example 33, (S)-2-(tert-Butoxy)-2-(6-(3-(4-methoxyphenyl)propyl)-2-methyl-4-(p-tolyl)-5,6,7,8-tetrahydro-1,6-naphthyridin-3-yl)acetic acid] the EC50 was 17 nM.
